In PMC10733307, “Dual species sphingosine-1-phosphate lyase inhibitors to combine antifungal and anti-inflammatory activities in cystic fibrosis: a feasibility study” (Scientific Reports, 2023):

How the values were obtained:
AfuSPL [1] = molecular target: T1, AfuSPL (Aspergillus fumigatus, UniProt Q4WPU3); assay: fluorimetric lyase assay; type: biochemical; conditions: 1 mM inhibitor, fluorogenic S1P substrate, pH 7.4, 37 °C
T1 construct: gene AFUA_4G10470; cytosolic catalytic domain, Δ1-81, C-terminal His tag, pET28, E. coli BL21 with GroEL/GroES (pGro7), about 50 kDa subunit, dimer
T1 sequence (Q4WPU3 82-572): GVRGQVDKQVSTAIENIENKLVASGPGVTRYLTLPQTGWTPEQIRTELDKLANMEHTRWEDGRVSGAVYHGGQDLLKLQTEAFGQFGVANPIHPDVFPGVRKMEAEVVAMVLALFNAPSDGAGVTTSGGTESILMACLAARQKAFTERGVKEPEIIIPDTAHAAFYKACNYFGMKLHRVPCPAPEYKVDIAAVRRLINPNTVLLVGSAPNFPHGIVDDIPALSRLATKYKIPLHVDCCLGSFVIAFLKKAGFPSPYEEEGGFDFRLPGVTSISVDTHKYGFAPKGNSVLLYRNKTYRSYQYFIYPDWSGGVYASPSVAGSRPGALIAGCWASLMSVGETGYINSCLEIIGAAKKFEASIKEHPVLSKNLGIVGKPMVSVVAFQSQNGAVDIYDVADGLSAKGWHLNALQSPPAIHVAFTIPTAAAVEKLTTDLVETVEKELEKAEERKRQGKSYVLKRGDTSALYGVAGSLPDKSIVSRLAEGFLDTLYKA

hSPL = molecular target: T2, hSPL (Homo sapiens, UniProt O95470); assay: fluorimetric lyase assay, global fit to competitive inhibition model; type: biochemical
T2 construct: gene SGPL1
T2 sequence (O95470 81-568): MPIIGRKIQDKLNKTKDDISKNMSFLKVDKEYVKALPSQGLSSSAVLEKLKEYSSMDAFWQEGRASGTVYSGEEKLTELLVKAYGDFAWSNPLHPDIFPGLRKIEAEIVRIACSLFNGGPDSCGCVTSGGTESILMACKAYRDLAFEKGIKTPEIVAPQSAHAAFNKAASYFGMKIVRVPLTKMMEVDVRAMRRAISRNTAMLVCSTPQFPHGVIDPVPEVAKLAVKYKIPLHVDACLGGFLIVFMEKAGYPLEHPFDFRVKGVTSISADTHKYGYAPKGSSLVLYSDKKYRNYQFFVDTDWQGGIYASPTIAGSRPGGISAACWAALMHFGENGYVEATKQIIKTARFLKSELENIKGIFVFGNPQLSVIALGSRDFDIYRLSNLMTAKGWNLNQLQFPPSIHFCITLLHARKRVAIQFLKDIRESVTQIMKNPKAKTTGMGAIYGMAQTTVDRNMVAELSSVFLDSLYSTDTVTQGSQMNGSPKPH
Description: fluorimetric lyase assay, global fit to competitive inhibition model on hSPL | From a global fitting of the data we estimated their KI values

AfuSPL [2] = molecular target: T1, AfuSPL; assay: as above; type: biochemical
Description: fluorimetric lyase assay, global fit to competitive inhibition model on AfuSPL | From a global fitting of the data we estimated their KI values

[3] = test system: N[C@@H](COP(=O)(O)O)[C@H](O)CCOc1ccc2ccc(=O)oc2c1; assay: purified protein; conditions: 100 mM Hepes pH 7.4, 0.1 mM EDTA, 0.05% Triton X-100, 100 μM PLP, 37 °C

C[C@@H]1CN(c2nnc(Cc3ccccc3)c3ccc(Cl)cc23)CCN1c1ccc(C#N)cn1 [30J, 6-[(2R)-4-(4-benzyl-7-chlorophthalazin-1-yl)-2-methylpiperazin-1-yl]pyridine-3-carbonitrile]
% inhibition at 1 mM (AfuSPL [1]): without any significant effect on the activity of AfuSPL

CCCOC(=O)c1c(NC(=O)CCCC(=O)Nc2sc3c(c2C(=O)OCCC)CCCCC3)sc2c1CCCCC2 [C17]
Ki (hSPL): 240 ± 50 µM
Ki (AfuSPL [2]): 270 ± 80 µM

AfuSPL (Aspergillus fumigatus Af293)
Km [3]: 3.1 ± 0.4 mM
kcat [3]: 0.103 ± 0.007 s⁻¹
